# ± gives the standard deviation of the averaged measurements.
# Assays:
# [1] = compound: O=S(=O)(O)CCC(F)(F)C(F)(F)C(F)(F)C(F)(F)F [4:2 Fluorotelomer sulfonic acid]; test: level (log10 ratio to DMSO vehicle control); higher = higher biomarker level / cell amount than vehicle control; conditions: in DMSO
# Procedure: (§1)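 BioMAP Diversity Plus panel of 12 human primary cell co-culture systems (3C, 4H, LPS, SAg, BT, BF4T, BE3C, CASM3C, HDF3CGF, KF3CT, MyoF, Mphg). Compounds were added 1 h before stimulation and left for 24 h (MyoF 48 h; BT 72 h for soluble read-outs or 6 d for IgG). Biomarkers were read by ELISA, cytotoxicity by SRB, PBMC viability and proliferation by Alamar Blue. Each well value was divided by the mean of 8 DMSO control wells on the same plate and log10 transformed; duplicate blinded samples were tested at 4 concentrations.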
# [2] = compound: OCC(F)(F)C(F)(F)C(F)(F)C(F)(F)C(F)(F)C(F)(F)F [6:1 Fluorotelomer alcohol]; test: as above; conditions: in DMSO
# Procedure: as §1
Test System,level (log10) ([1]; 6700 nM),level (log10) ([1]; 20000 nM),level (log10) ([1]; 60000 nM),level (log10) ([2]; 6700 nM),level (log10) ([2]; 20000 nM),level (log10) ([2]; 60000 nM)
HDF3CGF:Collagen III,-0.0795 ± 0.13,-0.0585 ± 0.14,-0.0265 ± 0.09,-0.0865 ± 0.14,0.0115 ± 0.074,-0.367 ± 0.052
MyoF:TIMP-1,-0.0465 ± 0.069,-0.0285 ± 0.047,-0.0095 ± 0.036,0.0125 ± 0.025,0.0145 ± 0.019,0.03 ± 0.013
CASM3C:HLA-DR,0.0045 ± 0.0064,-0.017 ± 0.014,-0.0115 ± 0.00071,0.0095 ± 0.0064,0.0135 ± 0.0021,-0.0195 ± 0.035
lMphg:SRB,-0.0035 ± 0.00071,0.004 ± 0.0042,-0.001 ± 0.0042,-0.001 ± 0.0099,-0.001 ± 0.0028,-0.0005 ± 0.0092
3C:CCL2/MCP-1,0.0035 ± 0.023,0.003 ± 0.054,0.0065 ± 0.025,-0.005 ± 0.011,-0.005 ± 0.0014,-0.007 ± 0.033
CASM3C:CXCL9/MIG,-0.04 ± 0.03,-0.0225 ± 0.013,0.006 ± 0.033,-0.003 ± 0.0014,-0.0085 ± 0.0021,-0.0305 ± 0.046
HDF3CGF:Collagen I,-0.0015 ± 0.054,-0.007 ± 0.0057,0.0385 ± 0.018,-0.01 ± 0.0085,-0.0005 ± 0.005,0.0145 ± 0.039
lMphg:CD69,-0.023 ± 0.0028,-0.014 ± 0.021,-0.044 ± 0.059,-0.007 ± 0.047,-0.038 ± 0.052,-0.055 ± 0.073
CASM3C:CD141/Thrombomodulin,-0.01 ± 0.031,-0.021 ± 0.0099,-0.0045 ± 0.029,0.0105 ± 0.044,0.023 ± 0.0028,0.023 ± 0.0099
3C:CD142/Tissue Factor,-0.007 ± 0.044,0.0225 ± 0.011,0.024 ± 0.025,-0.007 ± 0.0014,0.004 ± 0.014,0.0005 ± 0.026
lMphg:CXCL8/IL-8,-0.0295 ± 0.043,-0.0215 ± 0.021,0.005 ± 0.031,0.0335 ± 0.016,0.0395 ± 0.035,0.0375 ± 0.0092
BE3C:MMP-9,-0.0055 ± 0.005,-0.0045 ± 0.018,0.0135 ± 0.0092,-0.0045 ± 0.037,-0.0065 ± 0.019,0.0155 ± 0.021
3C:CD62E/E-Selectin,-0.019 ± 0.011,-0.0035 ± 0.019,0.0045 ± 0.018,-0.001 ± 0.0099,-0.011 ± 0.0085,0.0125 ± 0.0078
BE3C:PAI-I,-0.0075 ± 0.0035,-0.014 ± 0.0085,-0.008 ± 0.017,-0.0235 ± 0.0092,-0.007 ± 0.0014,0.026 ± 0.011
CASM3C:CXCL8/IL-8,0.0035 ± 0.0035,-0.0095 ± 0.026,0.0075 ± 0.025,0.0005 ± 0.015,0.004 ± 0.018,0 ± 0.0014
lMphg:M-CSF,-0.0105 ± 0.0078,-0.024 ± 0.0099,-0.0175 ± 0.0035,-0.023 ± 0.028,-0.0415 ± 0.035,-0.0285 ± 0.029
BE3C:SRB,0.0015 ± 0.00071,-0.007 ± 0.0085,0.0005 ± 0.0078,-0.0015 ± 0.005,-0.0055 ± 0.0021,0.002 ± 0.011
CASM3C:Proliferation,-0.012 ± 0.021,-0.044 ± 0.0057,0 ± 0.031,0.02 ± 0.037,0.0125 ± 0.0078,-0.664 ± 0.24
lMphg:SRB-Mphg,-0.004,0.01,0.0065 ± 0.016,-0.0015 ± 0.0064,-0.02 ± 0.014,-0.0595 ± 0.054
lMphg:CD106/VCAM-1,-0.0145 ± 0.0078,-0.0075 ± 0.011,-0.0135 ± 0.005,0.0035 ± 0.021,0.0035 ± 0.032,0.0115 ± 0.04

Test System,level (log10) ([1]; 6700 nM),level (log10) ([1]; 20000 nM),level (log10) ([1]; 60000 nM),level (log10) ([2]; 6700 nM),level (log10) ([2]; 20000 nM),level (log10) ([2]; 60000 nM)
MyoF:PAI-I,-0.0015 ± 0.00071,0.0055 ± 0.0035,0.0055 ± 0.012,0.0015 ± 0.0078,-0.006 ± 0.0042,0.0025 ± 0.019
lMphg:CD62E/E-Selectin,-0.0235 ± 0.033,-0.0105 ± 0.061,-0.0105 ± 0.011,0.009 ± 0.024,-0.008 ± 0.011,-0.002 ± 0.023
HDF3CGF:PAI-I,0.0085 ± 0.044,-0.011 ± 0.014,-0.02 ± 0.021,0.006 ± 0.018,0.0105 ± 0.026,-0.103 ± 0.18
CASM3C:M-CSF,-0.0265 ± 0.011,-0.02 ± 0.0028,0.001 ± 0.03,-0.013 ± 0.0042,-0.013 ± 0.037,-0.0855 ± 0.023
HDF3CGF:M-CSF,-0.038 ± 0.05,-0.062 ± 0.05,-0.0835 ± 0.019,0 ± 0.02,0.0355 ± 0.0092,-0.225 ± 0.03
MyoF:bFGF,-0.001 ± 0.0071,0.0025 ± 0.028,0.0055 ± 0.022,-0.001 ± 0.0014,0.0005 ± 0.013,0.006 ± 0.011
KF3CT:CD54/ICAM-1,-0.006 ± 0.0085,-0.0125 ± 0.0092,-0.0125 ± 0.0078,0.001 ± 0.0014,-0.005 ± 0.0071,0.016 ± 0.013
CASM3C:PAI-I,-0.002 ± 0.0014,-0.0015 ± 0.00071,-0.002 ± 0.0057,-0.0035 ± 0.005,-0.0015 ± 0.00071,0.003 ± 0.0085
MyoF:Collagen IV,-0.0075 ± 0.00071,-0.037 ± 0.0057,-0.0225 ± 0.025,-0.013 ± 0.0014,-0.0335 ± 0.016,0.012 ± 0.02
CASM3C:CD106/VCAM-1,0.0035 ± 0.0078,-0.0285 ± 0.025,-0.0325 ± 0.005,-0.0075 ± 0.026,-0.001 ± 0.024,-0.074 ± 0.034
HDF3CGF:MMP-1,-0.009 ± 0.0028,-0.0285 ± 0.028,-0.0365 ± 0.026,0.002 ± 0.0099,0.008 ± 0.0071,-0.0355 ± 0.07
MyoF:alpha-SM Actin,0 ± 0.052,0.022 ± 0.0028,0.035 ± 0.0028,0 ± 0.0057,-0.006 ± 0.0099,0.011 ± 0.054
MyoF:Collagen I,0.004 ± 0.013,-0.0155 ± 0.015,0.018,0 ± 0.021,-0.0005 ± 0.012,0.0015 ± 0.03
HDF3CGF:TIMP-2,-0.026 ± 0.0028,-0.0335 ± 0.016,-0.009 ± 0.051,0.004 ± 0.0099,-0.0195 ± 0.0064,-0.0905 ± 0.17
KF3CT:CXCL9/MIG,0.0005 ± 0.0021,0.004 ± 0.016,0.0105 ± 0.016,-0.0025 ± 0.019,-0.003 ± 0.016,0.0025 ± 0.0021
KF3CT:PAI-I,-0.005 ± 0.0071,-0.015 ± 0.0014,-0.0175 ± 0.0064,-0.0005 ± 0.011,-0.001 ± 0.011,0.008 ± 0.0099
3C:CD141/Thrombomodulin,-0.014 ± 0.0028,-0.005 ± 0.013,-0.013 ± 0.044,-0.0155 ± 0.018,-0.0285 ± 0.0092,-0.005 ± 0.02
MyoF:Decorin,-0.0075 ± 0.0078,-0.012 ± 0.0014,0.004 ± 0.0028,0.004 ± 0.0071,0.0075 ± 0.0092,0.0005 ± 0.023
3C:CD54/ICAM-1,0.001 ± 0.0014,-0.0125 ± 0.0021,0.0045 ± 0.012,0.004,-0.001 ± 0.0071,-0.0815 ± 0.12
KF3CT:CXCL10/IP-10,-0.007 ± 0.0028,-0.0145 ± 0.011,-0.0115 ± 0.0092,0.0155 ± 0.0035,0.0055 ± 0.015,0.011

# — the supplement of paper PMC10331698
